The values below come from PMC3010197 (Biochemistry, 2010).

Several values for one entry are separate records, joined by “and”; a condition that tells them apart may be missing. Identical values can stand only once. Like-named read-outs stand apart in the source and are kept apart here.

For series [1], the target named is T1, BbNic (Borrelia burgdorferi nicotinamidase) (Borreliella burgdorferi, UniProt O50718). It counts as biochemical.
In series [2] the target is T2, PfNic (Plasmodium falciparum nicotinamidase) (Plasmodium falciparum, UniProt O97284). The class given is biochemical.
Series [3] has as its target T3, Pnc1 (Saccharomyces cerevisiae nicotinamidase) (Saccharomyces cerevisiae, UniProt P53184).
T3 sequence (P53184 1-216): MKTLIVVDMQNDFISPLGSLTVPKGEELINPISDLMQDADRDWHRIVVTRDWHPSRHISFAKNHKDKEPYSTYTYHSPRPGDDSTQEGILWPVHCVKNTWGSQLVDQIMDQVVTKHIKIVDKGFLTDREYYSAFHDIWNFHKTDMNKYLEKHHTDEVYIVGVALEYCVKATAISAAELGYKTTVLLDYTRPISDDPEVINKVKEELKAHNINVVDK
Briefly: Substrate specificity: relative rates for nicotinamide analogues. It counts as biochemical.

Series [4] addresses T4, SpNic (Streptococcus pneumoniae nicotinamidase) (Streptococcus pneumoniae, UniProt A0A0H2UR34). The class given is biochemical.
Series [5] concerns Bovine glutamate dehydrogenase (GDH). The note with it: GDH Km for NADPH; cited from earlier work.
Series [6] relates to nicotinamidases. Briefly: Class-wide statements for all nicotinamidases studied. It counts as biochemical.
The target in series [7] is T2, PfNic (Plasmodium falciparum nicotinamidase). The series is described as follows: biochemical.
For series [8], the target named is S. cerevisiae nicotinamidase. The note with it: reported as non-competitive; cited from earlier work.
For series [9], the target named is T3, Pnc1 (Saccharomyces cerevisiae nicotinamidase). Briefly: Inhibition analysis, GDH coupled nicotinamidase assay. It counts as biochemical. The note with it: Km of nicotinamide over Ki of nicotinaldehyde.
Series [10] deals with SPNic C136S mutant. Briefly: Nicotinamidase catalytic rate of SpNic and mutants. It counts as biochemical, Streptococcus pneumoniae. The note with it: 200 µM NAM, 37 °C, HPLC assay.
The target in series [11] is T1, BbNic (Borrelia burgdorferi nicotinamidase). The series is described as follows: Steady state kinetics of nicotinamide hydrolysis, HPLC assay. It counts as biochemical. The note with it: substrate nicotinamide, 100 mM phosphate pH 7.3.
Series [12] addresses T3, Pnc1 (Saccharomyces cerevisiae nicotinamidase). The series is described as follows: Steady state progress curve analysis, GDH coupled assay. The note with it: substrate nicotinamide, 100 µM nicotinamide, pH 7.3.
The target in series [13] is T4, SpNic (Streptococcus pneumoniae nicotinamidase). Described as above. The class given is biochemical. The note with it: substrate nicotinamide, 100 µM nicotinamide, pH 7.3.
For series [14], the system named is SPNic C136A mutant. Briefly: Nicotinamidase catalytic rate of SpNic and mutants. The class given is biochemical, Streptococcus pneumoniae. The note with it: 200 µM NAM, 37 °C, HPLC assay.
The conditions of series [15]: no reference given; cited from earlier work.
Substrate in series [16]: NC(=O)c1cccnc1
The series is described as follows: Steady state analysis. The class given is biochemical, Caenorhabditis elegans. The note with it: other: substrate nicotinamide, initial rates, pH 7.3.

Where [17] appears, read: footnote a: GDH coupled fluorescence assay, 500 µM analogue, pH 7.3.
Where [18] appears, read: footnote b: HPLC assay, 500 µM analogue, pH 7.3, 37 °C.

For `Cc1cncc(C(N)=O)c1` [compound 1, 5-methylnicotinamide], the “Relative rate (nicotinamide = 1.00)” value in [1] (setting [17]) came to 0.51; in [2] (setting [17]), 3.30; in [3] (setting [17]), 0.80; in [4] (setting [17]), 1.63.
In the case of `COC(=O)c1cccnc1` [compound 11, methylnicotinate], the “Relative rate (nicotinamide = 1.00)” value in series [2] (setting [18]) was determined as 65.0; in series [2] (footnote b: HPLC assay, 500 µM analogue, pH 7.3, 37 °C, listed as methylnicotinate), 65; in [3] (setting [18]), 0.15; in series [4] (setting [18]), 0.035. Moreover, in series [2] (methylnicotinate as substrate), the “steady state rate constant of turnover” value was determined as 18 s⁻¹.
In the case of `NC(=O)c1ccc(Cl)nc1` [compound 4, 6-chloronicotinamide], the “Relative rate (nicotinamide = 1.00)” value in [1] (setting [18]) came to 0; in [2] (setting [18]) it was 0; in series [3] (setting [18]), 0.17; in [4] (setting [18]), 0.018.
With `C[n+]1ccc(C(N)=O)cc1` [compound 15, 1-methyl isonicotinamide], the “Relative rate (nicotinamide = 1.00)” value in series [2] (setting [18]), in [3] (setting [18]) and in series [4] (setting [18]) was 0 each time.
Turning to `COc1cncc(C(N)=O)c1` [compound 2, 5-Methoxynicotinamide], the “Relative rate (nicotinamide = 1.00)” value was determined as 2.21 in [1] (setting [18]), 6.46 in series [2] (setting [18]), 2.06 in series [3] (setting [18]) and 1.37 in series [4] (setting [18]).
Take `NC(=O)c1ccncc1` [compound 8, isonicotinamide]: the “Relative rate (nicotinamide = 1.00)” value in [2] (setting [18]), in series [3] (setting [18]) and in [4] (setting [18]) was 0 each time.
On to `NC(=O)C1=CN([C@@H]2O[C@H](COP(=O)(O)OP(=O)(O)OC[C@H]3O[C@@H](n4cnc5c(N)ncnc54)[C@H](OP(=O)(O)O)[C@@H]3O)[C@@H](O)[C@H]2O)C=CC1` [NADPH, nicotinamide adenine dinucleotide phosphate reduced form], for which the Km in series [5] was 28 µM.
As for `O=C(Oc1ccccc1)c1cccnc1` [compound 13, phenylnicotinate], the “Relative rate (nicotinamide = 1.00)” value in series [2] (setting [18]) was found to be 0.13; in series [3] (setting [18]), 0.031; in series [4] (setting [18]), 0.031.
Consider `CCOC(=O)c1cccnc1` [compound 12, ethylnicotinate], for which the entries for the “Relative rate (nicotinamide = 1.00)” value in series [2] (setting [18]), in series [3] (setting [18]) and in [4] (setting [18]) were 0.023, 0.044 and 0.0086, respectively.
As for `O=Cc1cccnc1` [compound 16, nicotinaldehyde], in [6] (across all enzymes studied except yeast pnc1), the “factor by which Ki is smaller than the Km for nicotinamide” value is recorded as 91–3450. In addition, the “mode of inhibition (double reciprocal plots)” value in series [6] (versus nicotinamide, in all cases) is given as “competitive inhibition”. Besides, the Ki in series [7] was 0.034 ± 0.007 µM; in series [8], 68 µM. Further, the Km/Ki in series [9] amounted to 7.6.
Regarding `O=Cc1ccc(F)nc1` [compound 21, 6-Fluoro-3-pyridinecarboxaldehyde], in series [7], the affinity, expressed as Ki, was 4.9 µM.
With `Cc1ccc(C(N)=O)cn1` [compound 5, 6-methylnicotinamide], the “Relative rate (nicotinamide = 1.00)” value in series [1] (setting [17]) came to 0.45; in series [2] (setting [17]) it was 0.40; in [3] (setting [17]) it was 0; in series [4] (setting [17]) it was 0.11.
As to `C[n+]1cccc(C(N)=O)c1` [compound 14, 1-Methylnicotinamide], the “Relative rate (nicotinamide = 1.00)” value in series [2] (setting [18]), in [3] (setting [18]) and in [4] (setting [18]) was 0 throughout.
Consider `Cc1cncc(C=O)c1` [compound 19, 5-methylnicotinaldehyde], for which the Ki in series [7] was determined as 0.023 ± 0.005 µM.
In series [7], `CC(=O)c1cccnc1` [compound 24, acetylpyridine] had a Ki of 10 µM.
In turn, `N#Cc1cccnc1` [compound 23, 3-cyanopyridine] displayed a Ki in series [7] of 1000 µM.
In the case of `NC(=S)c1cccnc1` [compound 10, Thionicotinamide], the “Relative rate (nicotinamide = 1.00)” value in [1] (no method footnote) is given as 0; in series [2] (no method footnote) it was 0; in series [3] (no method footnote), 0.44; in [4] (no method footnote), 0.
With `NC(=O)c1ccnc(N)c1` [compound 9, 2-Aminoisonicotinamide], the “Relative rate (nicotinamide = 1.00)” value in [2] (setting [18]), in [3] (setting [18]) and in [4] (setting [18]) was 0 throughout.
`NC(=O)c1cccnc1` [nicotinamide]: the “Relative rate (nicotinamide = 1.00)” value in series [1] (no method footnote), in series [2] (no method footnote), in series [3] (no method footnote) and in series [4] (no method footnote) was 1.00 in each case. For the same molecule, the “Catalytic rate (kobs)” value in [10] and in series [14] was < 10^−6 s^−1 throughout. Besides, the Km in [11] (Michaelis-Menten fit) was 36.7 ± 7.5 µM. The kcat in [11] (confirmed by HPLC assay) was 0.0030 ± 0.0002 ^b s^−1; in [12], 3.8 s^−1 and 3.8 ± 0.1 ^b s^−1; in series [13], 2.1 s⁻¹.
Take `COc1ccncc1C(N)=O` [compound 7, 4-Methoxynicotinamide]: the “Relative rate (nicotinamide = 1.00)” value in series [1] (setting [18]) is recorded as 0.20; in series [2] (setting [18]), 0.12; in [3] (setting [18]), 0.050; in series [4] (setting [18]) it was 0.065.
Regarding `O=C(O)c1cccnc1` [nicotinic acid, reference compound], the pKa in series [15] was around 3. The “effect on nicotinamidase rates (product inhibition)” value in series [6] (nicotinic acid up to 500 µM, all enzymes, data not shown) is “do not vary”.
Regarding `NC(=O)c1ccc(N)nc1` [compound 6, 6-aminonicotinamide], the “Relative rate (nicotinamide = 1.00)” value in series [2] (setting [17]) came to 0.45; in [3] (setting [17]) it was 0.20; in [4] (setting [17]), 0.36.
For `NC(=O)c1cccnc1Cl` [compound 3, 2-chloronicotinamide], the “Relative rate (nicotinamide = 1.00)” value in series [1] (setting [18]), in series [2] (setting [18]), in [3] (setting [18]) and in [4] (setting [18]) was 0 in each case.

B1: CePNC2 (Caenorhabditis elegans nicotinamidase 2) (Caenorhabditis elegans) (protein)
chain: MGVVQNEQDIREKMKNELISLVNEIDLIPELDRLLDDFIENKTWNEDTQELFTRVVLKPFTTLRTSLLVVDFQNDFVTGSLSIKEGDAEQDPLEALPHVNNLLENLNWNMIVYTQDWHPSNHISFFEHARNPDRELAPEDKSRKLRPFDIVRFVKPVSTIQVLYPSHCIQGGWGSQLHLGLQRIDGAHYIKKGADVYVDAYSAFSDNCGIKQSELEMLLRKNDINAVIGCGLAYDICVMHTLKDASKHGFLTCIVKSGSKGLSSLKMDEANKMFQKRGVAIIDDEMAQLISRREAFPIEWIRLLVHQAQSELHGKK
As for B1, in series [16], the Km is listed as 76 ± 10 µM and the turnover number (kcat) was found to be 0.28 ± 0.013 s⁻¹.

B2: CePNC1 (Caenorhabditis elegans nicotinamidase 1) (Caenorhabditis elegans) (protein)
chain: DNSATTNNNTILGNQSLEAIPEQLSELTGITVEESERIMESWLGNRQLDLRTSVLFDQEVLSRLRSLRVALLVVDFQNDFVDGSLKIGDGDAGQEPSSAITPLNELLQLSSWDLVVYTKDWHPHNHISFLSQAHNSDRVMDEKDENKTLGFFDSVQFLKPIKTEQVLYPDHCIQKSWGSDIHPEIYIADNAEYIMKGVDPYLDSYSAFNDNNGRSKTELEDLLRRENIDAVVIAGLAYDICVRFTCLDAVKQNFLAAVIPECSAGLTKKGIEESEMAFKKQGVAMISKDEARGITEGGFLPREWVQRIVKK
For the molecule B2, in series [16], the Km is recorded as 113 ± 11 µM and the kcat is 3.1 ± 0.12 s⁻¹.

In general, Km refers to the concentration of substrate that gives half-maximal velocity. Usually Ki stands for a dissociation constant, usually derived from enzyme kinetics or from competition with a known ligand. By kcat is commonly meant the maximal rate divided by the concentration of active sites. A word on the pKa: it is the pH at which an ionisable group is half protonated.
